Like-named read-outs stand apart in the source and are kept apart here.
Assays:
[1] = tested on: AHR-regulated gene CYP1A1; assay: In vitro assay 3: AHR-regulated CYP1A1 expression in human cell line (U937, qPCR)
Method: In Vitro Assay 3: AHR-Regulated CYP1A1 Expression in Human Cell Line
To assess the AHR inhibitory activity of the substances described in this application, the ability thereof to antagonise ligand-induced AHR gene regulation in a dose-dependent manner was quantified. For this purpose, quantitative PCR analysis was used to determine expression of the AHR-regulated gene CYP1A1 in a human monocytic U937 cell line upon stimulation with 200 μM KA in the presence and absence of AHR inhibitor. U937 cells were sown at a concentration of 2×10^5 cells/well in 100 ul of growth medium (RPMI 1640, 20% FCS) in 96-well microtitre plates. CYP1A1 expression was induced with 200 μM KA (positive control) in the presence or absence of the substances for 6 hours. Human U937 cells were typically incubated with eight different concentrations of the substances (1 nM, 3 nM, 10 nM, 30 nM, 100 nM, 300 nM, 1 μM and 3 μM) and analyzed in duplicate on the same microtitre plate. After stimulation, cells were lysed with Nucleic Acid Lysis Solution (#4305895, Applied Biosystems) and RNA was isolated using the 6100 Nucleic Acid Preparation Station (Applied Biosystems) and reverse-transcribed to cDNA using SuperScript VILO cDNA synthesis kit (#11754-250, Invitrogen). Unstimulated cells were used as the negative control. Taqman probes for human CYP1A1 (Hs01054797_g1) and human HPRT (Hs02800695_m1) were used to analyze fold expression of CYP1A1 of HPRT. Quantitation was performed on a Taqman SDS7900HT.

AHR [2] = target: T1, AHR (Homo sapiens, UniProt P35869); assay: In vitro assay 1: antagonism in human cell line (transactivation assay, kynurenic acid prestimulated); details: Assay 1: AHR-luc Hum Antagonism IC50 [M], 150 μM kynurenic acid, 20 hours, firefly luciferase
T1 sequence (P35869 11-848): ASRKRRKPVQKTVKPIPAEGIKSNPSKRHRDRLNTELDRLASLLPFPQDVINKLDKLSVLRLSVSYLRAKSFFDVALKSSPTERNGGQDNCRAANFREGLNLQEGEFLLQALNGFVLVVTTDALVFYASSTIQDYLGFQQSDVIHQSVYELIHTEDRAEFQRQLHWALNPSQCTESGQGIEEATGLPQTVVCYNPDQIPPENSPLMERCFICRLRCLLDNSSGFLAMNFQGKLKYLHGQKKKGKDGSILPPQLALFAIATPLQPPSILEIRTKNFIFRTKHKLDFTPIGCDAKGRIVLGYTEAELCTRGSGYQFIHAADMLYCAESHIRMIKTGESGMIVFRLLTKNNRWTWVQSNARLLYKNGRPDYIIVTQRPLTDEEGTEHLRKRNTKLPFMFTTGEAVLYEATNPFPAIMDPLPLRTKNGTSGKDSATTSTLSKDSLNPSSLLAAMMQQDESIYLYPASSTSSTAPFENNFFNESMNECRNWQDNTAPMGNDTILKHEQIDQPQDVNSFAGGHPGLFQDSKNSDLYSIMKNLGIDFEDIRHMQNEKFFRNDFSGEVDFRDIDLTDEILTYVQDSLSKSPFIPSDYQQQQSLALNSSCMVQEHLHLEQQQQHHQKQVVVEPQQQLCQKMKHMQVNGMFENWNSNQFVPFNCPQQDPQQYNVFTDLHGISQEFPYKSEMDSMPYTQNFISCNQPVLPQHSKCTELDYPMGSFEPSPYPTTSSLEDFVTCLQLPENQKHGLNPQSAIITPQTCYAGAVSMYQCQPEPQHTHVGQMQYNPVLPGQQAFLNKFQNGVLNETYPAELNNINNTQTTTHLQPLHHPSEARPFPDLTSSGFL
Method: Transactivation assays were carried out in U87 glioblastoma cells (ATCC) endogenously expressing AHR. In addition the cells were stably transfected with an AHR inducible firefly luciferase reporter gene construct that carried AHR-binding sites (DRE) in its promoter and a renilla reporter gene construct with constitutively active promoter. Kynurenic acid is an endogenous AHR activating ligand and was used to prestimulate test cells prior to testing the antagonistic properties of compounds.
In Vitro Assay 1: Antagonism in Human Cell Line
Cells in medium (tryptophan free RPMI, 1% FCS, 2 mM Glutamine) supplemented with 150 μM kynurenic acid were grown for 20 hours in absence (negative control) or presence of increasing concentrations of test compounds (typical dilutions: 72 pmol/L, 0.25 nmol/L, 0.89 nmol/L; 3.1 nmol/L, 11 nmol/L, 38 nmol/L, 130 nmol/L, 470 nmol/L, 1.6 μmol/L, 5.7 μmol/L and 20 μmol/L in duplicates). As positive inhibition control cells supplemented with 150 μM kynurenic acid were incubated in presence of 5 μM Staurosporin. Normalization was done by positive and negative controls.
Firefly luciferase and Renilla activity was determined by the DualGlo Luciferase Assay System (Promega, #2920).

AHR [3] = target: T1, AHR; assay: In vitro assay 2: agonism in human cell line (transactivation assay)
[4] = Homo sapiens, U-937, 6 h, read-out: Assay 3: Hum CYP1A1 Antagonism IC50 [M], U937 cells, 200 μM KA, 6 hours, qPCR
[5] = Assay 2: AHR-luc Hum Agonism IC50 [M], no kynurenic acid, 20 hours, firefly luciferase
[6] = read-out: Assay 3: Hum CYP1A1 Antagonism IC50, U937 cells, 200 μM KA, 6 hours, qPCR
[7] = read-out: Assay 2: AHR-luc Hum Agonism IC50, no kynurenic acid, 20 hours, firefly luciferase

Compound | IC50 [1, 4] | IC50 (AHR [2]) | IC50 (AHR [3]; [5]) | IC50 [1, 6] | IC50 (AHR [3]; [7])
O=C(N[C@@H]1CCCC[C@@H]1O)c1cc(-c2ccc(Cl)cc2)nn(-c2cccc(F)c2)c1=O (single isomer, unassigned) [Example 104, 6-(4-Chlorophenyl)-2-(3-fluorophenyl)-N-(cis-2-hydroxycyclohexyl)-3-oxo-2,3-dihydropyridazine-4-carboxamide] | 1.64e-08 M | 1.57e-08 M | > 2e-05 M | – | –
COc1ccc(-c2cc(C(=O)N[C@@H]3CCCC[C@@H]3O)c(=O)n(-c3cccc(F)c3)n2)cc1 (single isomer, unassigned) [Example 107, 2-(3-Fluorophenyl)-N-(cis-2-hydroxycyclohexyl)-6-(4-methoxyphenyl)-3-oxo-2,3-dihydropyridazine-4-carboxamide] | 1.83e-08 M | 1.76e-08 M | > 2e-05 M | – | –
O=C(N[C@H]1CCCC[C@@H]1O)c1cc(-c2ccc(Cl)cc2)nn(-c2cccc(F)c2)c1=O (single isomer, unassigned) [Example 118, 6-(4-chlorophenyl)-2-(3-fluorophenyl)-N-(trans-2-hydroxycyclohexyl)-3-oxo-2,3-dihydropyridazine-4-carboxamide] | 3.13e-08 M | 3.25e-08 M | > 2e-05 M | – | –
O=C(N[C@H]1CCC[C@@H]1O)c1cc(-c2ccc(Cl)cc2)nn(-c2cccc(F)c2)c1=O (single isomer, unassigned) [Example 124, 6-(4-Chlorophenyl)-2-(3-fluorophenyl)-N-(trans-2-hydroxycyclopentyl)-3-oxo-2,3-dihydropyridazine-4-carboxamide] | 3.59e-08 M | 3.65e-08 M | > 2e-05 M | – | –
COc1ccc(-c2cc(C(=O)NCC(O)C(F)(F)F)c(=O)n(-c3cccc(F)c3)n2)cc1 (single isomer, unassigned) [Example 127, 2-(3-Fluorophenyl)-6-(4-methoxyphenyl)-3-oxo-N-(3,3,3-trifluoro-2-hydroxypropyl)-2,3-dihydropyridazine-4-carboxamide] | – | 4.05e-08 M | > 2e-05 M | 6.08e-08 M | –
COc1ccc(-c2cc(C(=O)NCC(O)C(F)(F)F)c(=O)n(-c3cccc(F)c3)n2)cc1 (single isomer, unassigned) [Example 128, 2-(3-Fluorophenyl)-6-(4-methoxyphenyl)-3-oxo-N-(3,3,3-trifluoro-2-hydroxypropyl)-2,3-dihydropyridazine-4-carboxamide] | – | 1.7e-07 M | – | 6e-07 M | > 2e-05 M
O=C(N[C@H]1COC[C@@H]1O)c1cc(-c2ccc(Cl)cc2)nn(-c2cccc(F)c2)c1=O (single isomer, unassigned) [Example 135, 6-(4-Chlorophenyl)-2-(3-fluorophenyl)-N-(trans-4-hydroxytetrahydrofuran-3-yl)-3-oxo-2,3-dihydropyridazine-4-carboxamide] | 1.32e-07 M | 1.41e-07 M | > 2e-05 M | – | –
O=C(NC(CO)C1CCOC1)c1cc(-c2ccc(OC(F)F)cc2)nn(-c2cccc(F)c2)c1=O (single isomer, unassigned) [Example 145, 6-[4-(Difluoromethoxy)phenyl]-2-(3-fluorophenyl)-N-{(2-hydroxy-1-tetrahydrofuran-3-yl)ethyl}-3-oxo-2,3-dihydropyridazine-4-carboxamide] | 3.89e-08 M | 9.33e-08 M | > 2e-05 M | – | –
O=C(NC(CO)C(F)(F)F)c1cc(-c2ccc(OC(F)(F)F)cc2)nn(-c2cccc(F)c2)c1=O (single isomer, unassigned) [Example 170, 2-(3-Fluorophenyl)-3-oxo-N-(1,1,1-trifluoro-3-hydroxypropan-2-yl)-6-[4-(trifluoromethoxy)phenyl]-2,3-dihydropyridazine-4-carboxamide] | 1.42e-08 M | 1.19e-08 M | > 2e-05 M | – | –
O=C(NC(CO)C1CCOC1)c1cc(-c2ccc(OC(F)(F)F)cc2)nn(-c2cccc(F)c2)c1=O (single isomer, unassigned) [Example 175, 2-(3-Fluorophenyl)-N-[2-hydroxy-1-(tetrahydrofuran-3-yl)ethyl]-3-oxo-6-[4-(trifluoromethoxy)phenyl]-2,3-dihydropyridazine-4-carboxamide] | – | 2.91e-08 M | > 2e-05 M | 3.76e-08 M | –
O=C(NC(CO)C1CCOC1)c1cc(-c2ccc(OC(F)(F)F)cc2)nn(-c2cccc(F)c2)c1=O (single isomer, unassigned) [Example 176, 2-(3-Fluorophenyl)-N-[2-hydroxy-1-(tetrahydrofuran-3-yl)ethyl]-3-oxo-6-[4-(trifluoromethoxy)phenyl]-2,3-dihydropyridazine-4-carboxamide] | – | 1.71e-07 M | – | 1.02e-07 M | > 2e-05 M
O=C(NC(CO)C1CCOC1)c1cc(-c2ccc(OC(F)(F)F)cc2)nn(-c2cccc(F)c2)c1=O (single isomer, unassigned) [Example 177, 2-(3-Fluorophenyl)-N-[2-hydroxy-1-(tetrahydrofuran-3-yl)ethyl]-3-oxo-6-[4-(trifluoromethoxy)phenyl]-2,3-dihydropyridazine-4-carboxamide] | – | 3.19e-07 M | – | 6e-07 M | > 2e-05 M
O=C(NC(CO)C1CCOC1)c1cc(-c2ccc(OC(F)(F)F)cc2)nn(-c2cccc(F)c2)c1=O (single isomer, unassigned) [Example 178, 2-(3-Fluorophenyl)-N-[2-hydroxy-1-(tetrahydrofuran-3-yl)ethyl]-3-oxo-6-[4-(trifluoromethoxy)phenyl]-2,3-dihydropyridazine-4-carboxamide] | – | 1.27e-07 M | – | 1.13e-07 M | > 2e-05 M
CC(O)C(C)NC(=O)c1cc(-c2ccc(OC(F)(F)F)cc2)nn(-c2cccc(F)c2)c1=O (single isomer, unassigned) [Example 181, 2-(3-Fluorophenyl)-N-(3-hydroxybutan-2-yl)-3-oxo-6-[4-(trifluoromethoxy)phenyl]-2,3-dihydropyridazine-4-carboxamide] | 2.12e-07 M | 8.02e-08 M | – | – | > 2e-05 M
O=C(NCC(O)C(F)(F)F)c1cc(-c2ccc(OC(F)(F)F)cc2)nn(-c2cccc(F)c2)c1=O (single isomer, unassigned) [Example 183, 2-(3-Fluorophenyl)-3-oxo-N-(3,3,3-trifluoro-2-hydroxypropyl)-6-[4-(trifluoromethoxy)phenyl]-2,3-dihydropyridazine-4-carboxamide] | – | 3.78e-08 M | > 2e-05 M | 4.14e-08 M | –
O=C(NCC(O)C(F)(F)F)c1cc(-c2ccc(OC(F)(F)F)cc2)nn(-c2cccc(F)c2)c1=O (single isomer, unassigned) [Example 184, 2-(3-Fluorophenyl)-3-oxo-N-(3,3,3-trifluoro-2-hydroxypropyl)-6-[4-(trifluoromethoxy)phenyl]-2,3-dihydropyridazine-4-carboxamide] | – | 1.34e-07 M | – | 1.29e-07 M | > 2e-05 M
CC(O)C(NC(=O)c1cc(-c2ccc(Cl)cc2)nn(-c2cccc(F)c2)c1=O)C(F)(F)F (single isomer, unassigned) [Example 198, 6-(4-chlorophenyl)-2-(3-fluorophenyl)-3-oxo-N-(1,1,1-trifluoro-3-hydroxybutan-2-yl)-2,3-dihydropyridazine-4-carboxamide] | 1.49e-08 M | 1.34e-08 M | > 2e-05 M | – | –

Reference: patent US11040035B2, “3-oxo-2,6-diphenyl-2,3-dihydropyridazine-4-carboxamides” (BAYER PHARMA AKTIENGESELLSCHAFT, priority 2016, dated 2021)
